According to patent US7829665B2 (priority 2005, dated 2010):
Where two headings read alike, the source gives them in different places.

Key:
[1] = biological target: T1, full-length NS3/NS4A-2 (HCV NS3 protease) (Hepatitis C virus genotype 1a, UniProt P27958); assay: NS3-NS4 protease assay / NS3 inhibition assay (RETS1 substrate, fluorescence kinetic read); type: biochemical
T1 construct: Recombinant E. coli or Baculovirus full-length NS3 was diluted to 3.33 μM with assay buffer; made in house; host or cells: E. coli or baculovirus (BV) expression system
How it was run: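 Full-length NS3 from E. coli (2 nM in assay) or baculovirus (3 nM) was precomplexed with excess NS4A-2 peptide, then preincubated 10 min at room temperature with serially diluted compounds starting at 50 microM. Reaction was started with RETS1 substrate at 8 μM before addition and read kinetically for 30 min (ex 335/em 495 nm). Four-parameter IC50s were converted to Ki by Cheng-Prusoff using Km 2.03 μM (E. coli) or 1.74 μM (BV).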

[2] = system: HCV sub-genomic replicon in GS4.3 cells (HuH-7 hepatoma cells); assay: Quantitation by ELISA of Neomycin phosphotransferase II (NPTII) in the HCV sub-genomic replicon, GS4.3; type: cell-based, hepatitis C virus; details: Hepatitis C virus, Huh-7; GS4.3 cells, 72 h incubation, NPTII ELISA; read-out: Replicon EC50
How it was run: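 HuH-7 GS4.3 cells carrying HCV sub-genomic replicon 1377/NS3-3′, treated 72 h at 37 °C without G418 with 3-fold dilutions from 10 μM to 56 pM (1% DMSO). NPTII in cell lysates measured by direct ELISA with TMB readout at 450 nm. EC50 from 4-parameter fit of percent DMSO-control signal.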

[3] = recombinant E. coli or Baculovirus full-length NS3 with NS4A-2, read-out: NS3-NS4 IC50

T1 sequence (P27958 1027-1657): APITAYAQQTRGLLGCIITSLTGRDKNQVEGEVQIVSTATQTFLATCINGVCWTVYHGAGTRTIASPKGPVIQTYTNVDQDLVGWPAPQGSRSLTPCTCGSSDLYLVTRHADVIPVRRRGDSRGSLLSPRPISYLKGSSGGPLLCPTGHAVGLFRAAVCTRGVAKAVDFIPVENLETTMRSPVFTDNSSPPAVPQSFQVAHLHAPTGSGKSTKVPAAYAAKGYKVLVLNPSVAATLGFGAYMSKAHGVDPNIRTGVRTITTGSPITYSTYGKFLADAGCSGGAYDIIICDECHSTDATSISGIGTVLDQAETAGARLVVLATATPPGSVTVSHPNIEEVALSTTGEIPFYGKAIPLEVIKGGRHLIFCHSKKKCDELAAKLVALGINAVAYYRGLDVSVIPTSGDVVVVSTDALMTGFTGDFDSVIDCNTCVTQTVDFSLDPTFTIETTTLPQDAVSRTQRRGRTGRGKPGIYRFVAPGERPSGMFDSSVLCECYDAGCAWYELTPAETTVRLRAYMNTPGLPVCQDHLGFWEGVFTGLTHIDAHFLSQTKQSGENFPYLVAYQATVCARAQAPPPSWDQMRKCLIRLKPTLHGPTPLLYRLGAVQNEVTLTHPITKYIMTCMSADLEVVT

Compound	IC50 [1] [nM]	EC50 [2] [nM]	IC50 [1, 3] [nM]
CCOC1(S(=O)(=O)NC(=O)[C@@]23C[C@H]2/C=C\CCCCC[C@H](N)C(=O)N2C[C@H](OC(=O)N4Cc5cccc(Cl)c5C4)C[C@H]2C(=O)N3)CC1 [Compound 167]	< 100	< 10000	
CC(C)(C)OC(=O)N[C@H]1CCCCC/C=C\[C@@H]2C[C@@]2(C(=O)N[C@H]2CCS(=O)(=O)C2)NC(=O)[C@@H]2C[C@@H](OC(=O)N3Cc4cccc(F)c4C3)CN2C1=O [Compound 634]		< 10000	< 1000
CC(C)Nc1c(N[C@H]2CCCCC/C=C\[C@@H]3C[C@@]3(C(=O)NS(=O)(=O)C3CC3)NC(=O)[C@@H]3C[C@@H](OC(=O)N4Cc5cccc(F)c5C4)CN3C2=O)c(=O)c1=O [Compound 184]		< 10000	< 100
O=C(N[C@H]1CCCCC/C=C\[C@@H]2C[C@@]2(C(=O)NS(=O)(=O)N2CC(F)(F)C2)NC(=O)C2C[C@@H](OC(=O)N3Cc4cccc(F)c4C3)CN2C1=O)OC1CCCC1 (some centres unmarked) [Compound 229]		< 1000	< 100
N[C@H]1CCCCC/C=C\[C@@H]2C[C@@]2(C(=O)NCC2CC2)NC(=O)[C@@H]2C[C@@H](OC(=O)N3Cc4cccc(F)c4C3)CN2C1=O [Compound 622]		< 10000	< 10000
CC(C)(C)OC(=O)N[C@H]1CCCCC/C=C\[C@@H]2C[C@@]2(C(=O)NS(=O)(=O)N2CCOCC2)NC(=O)[C@@H]2C[C@@H](OC(=O)N3Cc4cccc(Cl)c4C3)CN2C1=O [Compound 207]		< 100	< 100
O=C1N[C@]2(C(=O)NS(=O)(=O)C3CC3)C[C@H]2/C=C\CCCCC[C@H](Nc2c(N3CCCC3)c(=O)c2=O)C(=O)N2C[C@H](OC(=O)N3Cc4cccc(F)c4C3)C[C@@H]12 [Compound 197]		< 10000	< 100
CN(C)[C@H]1CCCCC/C=C\[C@@H]2C[C@@]2(C(=O)NS(=O)(=O)C2CC2)NC(=O)[C@@H]2C[C@@H](OC(=O)N3Cc4cccc(F)c4C3)CN2C1=O [Compound 908]		< 10000	< 1000
N[C@H]1CCC(F)(F)CC/C=C\[C@@H]2C[C@@]2(C(=O)NS(=O)(=O)C2CC2)NC(=O)[C@@H]2C[C@@H](OC(=O)N3Cc4cccc(F)c4C3)CN2C1=O [Compound 1003]		< 1000	< 100
CC(C)(C)CCN[C@H]1CCCCC/C=C\[C@@H]2C[C@@]2(C(=O)NS(=O)(=O)C2CC2)NC(=O)[C@@H]2C[C@@H](OC(=O)N3Cc4cccc(F)c4C3)CN2C1=O [Compound 912]		< 100	< 100
Cc1cccc(C)c1CN[C@H]1CCCCC/C=C\[C@@H]2C[C@@]2(C(=O)NS(=O)(=O)C2CC2)NC(=O)[C@@H]2C[C@@H](OC(=O)N3Cc4cccc(F)c4C3)CN2C1=O [Compound 918]		< 1000	< 100
CC(C)(C)OC(=O)N[C@H]1CCCCC/C=C\[C@@H]2C[C@@]2(C(=O)NCC2(O)CC2)NC(=O)[C@@H]2C[C@@H](OC(=O)N3Cc4cccc(F)c4C3)CN2C1=O [Compound 619]		< 1000	< 100
CC(C)(C)OC(=O)N[C@H]1CCCCC/C=C\[C@@H]2C[C@@]2(C(=O)O)NC(=O)[C@@H]2C[C@@H](OC(=O)N3Cc4ccc(F)cc4C3)CN2C1=O [Compound 109]		< 10000	< 100
CN(C)C(=O)NC(=O)[C@@]12C[C@H]1/C=C\CCCCC[C@H](NC(=O)OC(C)(C)C)C(=O)N1C[C@H](OC(=O)N3Cc4cccc(F)c4C3)C[C@H]1C(=O)N2 [Compound 235]		< 100	< 100
CC(C)(C)OC(=O)N[C@H]1CCCCC/C=C\[C@@H]2C[C@@]2(C(=O)NS(=O)(=O)c2cccs2)NC(=O)[C@@H]2C[C@@H](OC(=O)N3Cc4cccc(Cl)c4C3)CN2C1=O [Compound 166]		< 100	< 100
CC(C)(C)OC(=O)N[C@H]1CCCCC/C=C\[C@@H]2C[C@@]2(C(=O)O)NC(=O)[C@@H]2C[C@@H](OC(=O)N3Cc4ccc(OCCNC5CC5)cc4C3)CN2C1=O [Compound 131]		< 10000	< 100
O=C(N[C@H]1CCCCC/C=C\[C@@H]2C[C@@]2(C(=O)O)NC(=O)[C@@H]2C[C@@H](OC(=O)N3Cc4ccncc4C3)CN2C1=O)OC1CCCC1 [Compound 146]		> 10000	< 100

Compound	IC50 [1] [nM]	EC50 [2] [nM]	IC50 [1, 3] [nM]
O=C1N[C@]2(C(=O)NS(=O)(=O)C3CC3)C[C@H]2/C=C\CCCCC[C@H](NCC2CCCO2)C(=O)N2C[C@H](OC(=O)N3Cc4cccc(F)c4C3)C[C@@H]12 (some centres unmarked) [Compound 916]		< 1000	< 100
O=C1N[C@]2(C(=O)NS(=O)(=O)C3CC3)C[C@H]2/C=C\CCCCC[C@H](NCC2CC2)C(=O)N2C[C@H](OC(=O)N3Cc4cccc(F)c4C3)C[C@@H]12 [Compound 910]		< 1000	< 100
Cc1sc(N[C@H]2CCCCC/C=C\[C@@H]3C[C@@]3(C(=O)NS(=O)(=O)C3CC3)NC(=O)[C@@H]3C[C@@H](OC(=O)N4Cc5cccc(F)c5C4)CN3C2=O)nc1-c1ccccc1 [Compound 928]		< 100	< 100
N#CNC(=O)[C@@]12C[C@H]1/C=C\CCCCC[C@H](NC(=O)CCC(F)(F)F)C(=O)N1C[C@H](OC(=O)N3Cc4cccc(F)c4C3)CC1C(=O)N2 (some centres unmarked) [Compound 642]		> 10000	< 1000
CC(C)(C)OC(=O)N[C@H]1CCCCC/C=C\[C@@H]2C[C@@]2(C(=O)NCC(O)(C(F)(F)F)C(F)(F)F)NC(=O)[C@@H]2C[C@@H](OC(=O)N3Cc4cccc(F)c4C3)CN2C1=O [Compound 613]		< 1000	< 1000
O=C(N[C@H]1CCCCC/C=C\[C@@H]2C[C@@]2(C(=O)NS(=O)(=O)Nc2ccc(Cl)cc2)NC(=O)[C@@H]2C[C@@H](OC(=O)N3Cc4cccc(F)c4C3)CN2C1=O)OC1CCCC1 [Compound 219]		< 10000	< 100
CC(C)(C)OC(=O)N[C@H]1CCCCC/C=C\[C@@H]2C[C@@]2(C(=O)NCC2CC2)NC(=O)[C@@H]2C[C@@H](OC(=O)N3Cc4cccc(F)c4C3)CN2C1=O [Compound 603]		< 1000	< 1000
CC(C)(C)OC(=O)N[C@H]1CCCCC/C=C\[C@@H]2C[C@@]2(C(=O)NS(=O)(=O)C2CC2)NC(=O)[C@@H]2C[C@@H](OC(=O)Nc3nc4ccccc4s3)CN2C1=O [Compound 140]		< 1000	< 100
CN(Cc1ccccc1)S(=O)(=O)NC(=O)[C@@]12C[C@H]1/C=C\CCCCC[C@H](NC(=O)OC(C)(C)C)C(=O)N1C[C@H](OC(=O)N3Cc4cccc(F)c4C3)C[C@H]1C(=O)N2 [Compound 210]		< 100	< 100
COCC1(S(=O)(=O)NC(=O)[C@@]23C[C@H]2/C=C\CCCCC[C@H](NC(=O)OC2CCCC2)C(=O)N2C[C@H](OC(=O)N4Cc5cccc(F)c5C4)C[C@H]2C(=O)N3)CC1 [Compound 171]		< 100	< 100
O=C1N[C@]2(C(=O)NS(=O)(=O)C3CC3)C[C@H]2/C=C\CCCCC[C@H](NCc2ccccc2)C(=O)N2C[C@H](OC(=O)N3Cc4cccc(F)c4C3)C[C@@H]12 [Compound 905]		< 100	< 100
CC(C)C(O)C(=O)N[C@H]1CCCCC/C=C\[C@@H]2C[C@@]2(C(=O)NS(=O)(=O)C2CC2)NC(=O)[C@@H]2C[C@@H](OC(=O)N3Cc4cccc(F)c4C3)CN2C1=O (some centres unmarked) [Compound 250]		< 1000	< 100
O=C(CCO)N[C@H]1CCCCC/C=C\[C@@H]2C[C@@]2(C(=O)NS(=O)(=O)C2CC2)NC(=O)[C@@H]2C[C@@H](OC(=O)N3Cc4cccc(F)c4C3)CN2C1=O [Compound 251]		< 10000	< 100
CC(C)(C)OC(=O)N[C@H]1CCCCC/C=C\[C@@H]2C[C@@]2(C(=O)NC(=O)N2CCOCC2)NC(=O)[C@@H]2C[C@@H](OC(=O)N3Cc4cccc(F)c4C3)CN2C1=O [Compound 234]		< 100	< 100
CC(C)(C)OC(=O)N[C@H]1CCCCC/C=C\[C@@H]2C[C@@]2(C(=O)NS(=O)(=O)N2CCOCC2)NC(=O)[C@@H]2C[C@@H](OC(=O)N3Cc4cccc(F)c4C3)CN2C1=O [Compound 209]		< 100	< 100
O=C1N[C@]2(C(=O)NS(=O)(=O)C3CC3)C[C@H]2/C=C\CCCCC[C@H](NC(=S)N2CCCC2)C(=O)N2C[C@H](OC(=O)N3Cc4cccc(F)c4C3)C[C@@H]12 [Compound 244]		< 100	< 100
O=C1N[C@]2(C(=O)NS(=O)(=O)C3CC3)C[C@H]2/C=C\CCCCC[C@H](NC(=S)NC2CCCC2)C(=O)N2C[C@H](OC(=O)N3Cc4cccc(F)c4C3)C[C@@H]12 [Compound 240]		< 1000	< 100
